The results in this text go back to ChEMBL document CHEMBL5725756, “Bifunctional compounds and use for reducing uric acid levels” (2018).

The target in the test is Xanthine dehydrogenase/oxidase (Homo sapiens, UniProt P47989). The test is described as follows: xanthine oxidase activity: Xanthine oxidase inhibition was determined using a standard fluorescence-based assay for xanthine oxidase activity (McHale A, Grimes H, Coughlan M P: Int J Biochem. 10:317-9, 1979) with minor variations. […] Experiments on test compounds were performed in triplicate in multi-well plates using 10 concentrations of each compound that ranged over a 3-fold dilution.
Xanthine dehydrogenase/oxidase, sequence (P47989 whole entry): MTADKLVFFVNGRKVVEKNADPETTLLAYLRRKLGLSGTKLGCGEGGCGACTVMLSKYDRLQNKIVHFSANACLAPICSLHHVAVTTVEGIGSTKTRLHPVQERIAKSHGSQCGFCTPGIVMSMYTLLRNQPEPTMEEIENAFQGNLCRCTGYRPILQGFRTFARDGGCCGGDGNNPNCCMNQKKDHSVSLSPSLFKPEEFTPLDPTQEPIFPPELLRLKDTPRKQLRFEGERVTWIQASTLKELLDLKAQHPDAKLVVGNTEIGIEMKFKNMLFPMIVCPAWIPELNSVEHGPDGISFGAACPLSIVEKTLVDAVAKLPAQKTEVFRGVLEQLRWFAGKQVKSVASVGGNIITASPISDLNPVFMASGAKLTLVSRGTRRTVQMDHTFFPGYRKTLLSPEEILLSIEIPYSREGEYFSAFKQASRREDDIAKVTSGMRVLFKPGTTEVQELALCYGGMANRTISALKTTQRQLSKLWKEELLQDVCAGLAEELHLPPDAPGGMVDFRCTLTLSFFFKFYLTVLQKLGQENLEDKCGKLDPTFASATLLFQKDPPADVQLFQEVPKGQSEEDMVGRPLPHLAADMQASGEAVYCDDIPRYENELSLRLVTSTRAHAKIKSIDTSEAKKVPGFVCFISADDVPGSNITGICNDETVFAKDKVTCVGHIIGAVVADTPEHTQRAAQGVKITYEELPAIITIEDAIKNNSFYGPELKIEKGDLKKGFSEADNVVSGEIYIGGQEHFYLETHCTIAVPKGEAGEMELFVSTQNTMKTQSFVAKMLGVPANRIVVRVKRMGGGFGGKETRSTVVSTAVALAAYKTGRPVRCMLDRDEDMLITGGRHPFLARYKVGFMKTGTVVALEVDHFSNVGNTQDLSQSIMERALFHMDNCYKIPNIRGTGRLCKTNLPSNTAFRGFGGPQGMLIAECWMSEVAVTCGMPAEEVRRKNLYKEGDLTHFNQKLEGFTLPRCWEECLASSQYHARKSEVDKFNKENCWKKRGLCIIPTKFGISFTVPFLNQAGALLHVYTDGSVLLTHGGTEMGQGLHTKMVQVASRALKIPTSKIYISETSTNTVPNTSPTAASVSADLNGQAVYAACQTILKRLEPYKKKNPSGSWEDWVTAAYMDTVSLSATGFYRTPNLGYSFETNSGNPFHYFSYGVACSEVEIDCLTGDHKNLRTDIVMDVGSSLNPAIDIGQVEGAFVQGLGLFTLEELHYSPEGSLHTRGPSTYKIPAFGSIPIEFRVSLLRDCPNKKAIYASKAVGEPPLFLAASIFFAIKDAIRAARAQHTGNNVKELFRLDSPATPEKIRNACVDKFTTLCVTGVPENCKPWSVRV

What is called IC50 is the point on the concentration scale where inhibition reaches its midpoint. Lower therefore signals inhibition by little substance. Regarding `O=C(O)CSc1nnc(Br)n1-c1ccc(C2CC2)c2ccccc12`, the IC50 is above 300 µM.
